Test results reported in US20090053168A1, “TREATMENTS OF B-CELL PROLIFERATIVE DISORDERS” (priority 2007, published 2009).
Structures can show the parent of a compound that is named as a salt. Where two headings read alike, the source gives them in different places.

What was measured:
[1] = system: RPMI-8226 cells; experiment: Anti-proliferation assay (ATPLite, 72 h), RPMI-8226; format: cell-based; details: for synergy score: RPMI-8226
[2] = system: MM.1R cells; experiment: Anti-proliferation assay (ATPLite, 72 h), MM.1R; format: cell-based
[3] = system: MM.1S cells; experiment: Anti-proliferation assay (ATPLite, 72 h), MM.1S; details: for synergy score: MM.1S; for Synergy score with dexamethasone, MM.1S: combination with dexamethasone, Loewe-based Synergy Score
[4] = system: H929 cells; experiment: Anti-proliferation assay (ATPLite, 72 h), H929; format: cell-based; details: for synergy score: H929; for Synergy score with dexamethasone, H929: combination with dexamethasone, Loewe-based Synergy Score, 72 h
[5] = system: chronic lymphocytic leukemia (CLL) cells; experiment: Apoptosis assay (Hoechst 33342 flow cytometry, 48 h) on patient CLL cells; format: cell-based, human; details: for Induction of CLL cell apoptosis: Patient #1
Excerpt: Patients with active infections or other serious medical conditions were not included in this study. Patients with white blood cell counts of less than 15,000/μl by automated analysis were excluded from this study. Whole blood was layered on Ficoll-Hystopaque (Sigma), and peripheral blood mononuclear cells (PBMC) isolated after centrification. […] One million cells were stained with anti-CD5-PE and anti-CD19-PE-Cy5 (Becton […].). The percentage of B-CLL cells was defined as the percentage of cells doubly expressing CD5 and CD19, as determined by flow cytometry. […] Compound master plates were diluted 1:50 into complete media to create working compound dilutions. Compound crosses were then created by diluting two working dilution plates 1:10 into each plate of cells. […] Hoechst 33342 (Molecular Probes, Eugene Oreg.) at a final concentration of 0.25 μg/mL was added to each well and the cells incubated at 37° C. for an additional ten minutes before being placed on ice until analysis. Plates were then analyzed on a LSR-II flow cytometer (Becton Dickenson, Franklin Lakes, N.J.) equipped with the High Throughput Sampling (HTS) option in high throughput mode. […] The apoptotic fraction was calculated using FlowJo software (Tree Star Inc., Ashland, Oreg.) after excluding debris by a FSC/SSC gate and subsequently gating for cells that accumulate the Hoechst dye.

[6] = system: MM.1S cells; details: MM.1S
[7] = in combination with HE-NECA, MM.1R
[8] = in combination with ADAC, MM.1R
[9] = combination with dexamethasone, Loewe-based Synergy Score, 72 h
[10] = Homo sapiens, MM1.S, read-out: percent inhibition of cell proliferation
[11] = Homo sapiens, MM1.S, 72 h, read-out: percent inhibition of cell proliferation

For CCCCCC[C@@H]([C@@H](C)O)n1cnc2c(N)ncnc21 (racemic) [EHNA, erythro-9-(2-hydroxy-3-nonyl)adenine], the “Synergy score with dexamethasone, RPMI-8226” value (“Synergy score … RPMI-8226” below) [1] was 1.14.
CCCCc1oc2ccccc2c1C(=O)c1cc(I)c(OCCN(CC)CC)c(I)c1 [Amiodarone] was tested, and the “synergy score” value [2, 7] was 0.67.
For Cn1cnc([N+](=O)[O-])c1Sc1ncnc2nc[nH]c12 [Azathioprine], the synergy score ([1]; in combination with ADAC) was 1.63, the synergy score [2, 8] was 1.26 and the synergy score ([3]; in combination with ADAC) was 1.43. For the same compound, the synergy score ([4]; in combination with ADAC) was 1.22.
For COc1ccc(Cc2nn3c([C@@H](CCCc4ccccc4)[C@@H](C)O)nc(C)c3c(=O)[nH]2)cc1OC [BAY 60-7550, 2-(3,4-dimethoxybenzyl)-7-[(1R)-1-[(1R)-1-hydroxyethyl]-4-phenylbutyl]-5-methylimidazo[5,1-f][1,2,4]triazin-4(3H)-one], the “Synergy score … RPMI-8226” value [1, 9] was 1.37, the inhibition at 0.437 µM [3, 10] was 2.2% and the inhibition at 1.31 µM [3, 10] was 1.7%. The inhibition at 3.93 µM [3, 10] was 3%, the inhibition at 35.4 µM [3, 10] was 44% and the “Synergy score with dexamethasone, MM.1S” value ([3]; 72 h) was 1.44. The “Synergy score with dexamethasone, H929” value [4] was 0.822.
CCCCOc1ccc(CC(=O)NO)cc1 [Bufexamac] showed a synergy score ([1]; in combination with ADAC) of 1.399, a synergy score ([1]; in combination with HE-NECA) of 0.3833 and a synergy score [2, 8] of 1.532. For the same compound, the synergy score [2, 7] was 3.173, the synergy score ([3]; in combination with ADAC) was 1.479 and the synergy score ([3]; in combination with HE-NECA) was 3.476. The synergy score ([4]; in combination with ADAC) was 1.12 and the synergy score ([4]; in combination with HE-NECA) was 3.17.
OC[C@H]1O[C@@H](n2cnc3c(NC4CCCC4)nc(Cl)nc32)[C@H](O)[C@@H]1O [CCPA, 2-chloro-N^6-cyclopentyladenosine] was tested, and the “Synergy score … RPMI-8226” value [1, 9] was 5.04, the inhibition at 0.0625 µM [3, 11] was 2.4% and the inhibition at 0.187 µM [3, 11] was 21%. For the same compound, the inhibition at 0.562 µM [3, 11] was 15%, the inhibition at 1.69 µM [3, 11] was 38% and the inhibition at 5.06 µM [3, 11] was 50%. For the same compound, the “activity and synergy in antiproliferation assays” value ([3]; RPMI-8226, H929, MM.1S and MM.1R MM cell lines) was “active and synergistic” and the “Synergy score with dexamethasone, MM.1S” value ([3]; 72 h) was 5.15.
In the case of CCNC(=O)[C@H]1O[C@@H](n2cnc3c(N)nc(NCCc4ccc(CCC(=O)O)cc4)nc32)[C@H](O)[C@@H]1O [CGS-21680, 2-(4-(2-carboxyethyl)phenethylamino)-5′-N-ethylcarboxamidoadenosine], the “Synergy score … RPMI-8226” value [1, 9] is reported as 2.54, the “Synergy score with dexamethasone, MM.1S” value ([3]; 72 h) is reported as 4.73 and the “Induction of CLL cell apoptosis” value ([5]; CGS-21680 0.05 μM alone) is reported as 12%. For the same compound, the “Induction of CLL cell apoptosis” value ([5]; CGS-21680 0.15 μM alone) was 14%, the “Induction of CLL cell apoptosis” value ([5]; CGS-21680 0.45 μM alone) was 16% and the “apoptosis, CLL cells patient 1” value ([5]; patient 1, 48 hours) was 14%. The “apoptosis, CLL cells patient #2” value ([5]; patient #2, 48 hours) was 9%.
CN(C(=O)CCCOc1ccc2[nH]c(=O)ccc2c1)C1CCCCC1 [Cilostamide, N-cyclohexyl-4-((1,2-dihydro-2-oxo-6-quinolinyl)oxy)-N-methyl-butanamide] was tested, and the “Synergy score … RPMI-8226” value [1, 9] was 1.42, the inhibition at 0.368 µM [3, 10] was 0.46% and the inhibition at 1.1 µM [3, 10] was 2.4%. For the same compound, the inhibition at 3.31 µM [3, 10] was -2%, the inhibition at 9.93 µM [3, 10] was 4.2% and the inhibition at 29.8 µM [3, 10] was 33%. For the same compound, the “Synergy score with dexamethasone, MM.1S” value ([3]; 72 h) was 1.34 and the “Synergy score with dexamethasone, H929” value [4] was 0.982.
For CN1C[C@H](C(=O)N[C@]2(C)O[C@@]3(O)[C@@H]4CCCN4C(=O)[C@H](Cc4ccccc4)N3C2=O)C[C@@H]2c3cccc4[nH]cc(c34)C[C@H]21 [Dihydroergotamine], the “synergy score” value [2, 7] was 2.56.
Work on C[C@H]1c2cccc(O)c2C(=O)C2=C(O)[C@]3(O)C(=O)C(C(N)=O)=C(O)[C@@H](N(C)C)[C@@H]3[C@@H](O)[C@@H]21 [Doxycycline] yielded a synergy score ([1]; in combination with ADAC) of 1.17, a synergy score [2, 8] of 0.78 and a synergy score ([3]; in combination with ADAC) of 2.22. It also gave a synergy score ([4]; in combination with ADAC) of 2.35.
COc1cccc2c1C(=O)c1c(O)c3c(c(O)c1C2=O)C[C@@](O)(C(=O)CO)C[C@@H]3O[C@H]1C[C@H](N)[C@@H](O)[C@H](C)O1 [Epirubicin] was tested, and the synergy score ([1]; in combination with ADAC) was 1.14, the synergy score [2, 8] was 1.42 and the synergy score ([4]; in combination with ADAC) was 0.33.
Nc1ccn([C@@H]2O[C@H](CO)[C@@H](O)C2(F)F)c(=O)n1 [Gemcitibine] gave a synergy score ([1]; in combination with ADAC) of 0.3, a synergy score [2, 8] of 1.2 and a synergy score ([3]; in combination with ADAC) of 1.42. It also gave a synergy score ([4]; in combination with ADAC) of 0.07.
For C#C[C@]1(O)CC[C@H]2[C@@H]3CCC4=CC(=O)CCC4=C3C=C[C@@]21CC [Gestrinone], the “synergy score” value [2] was 1.19.
Work on CCc1c2c(nc3ccc(OC(=O)N4CCC(N5CCCCC5)CC4)cc13)-c1cc3c(c(=O)n1C2)COC(=O)[C@]3(O)CC [Irinotecan hydrochloride] yielded a synergy score ([1]; in combination with ADAC) of 1.414, a synergy score ([1]; in combination with HE-NECA) of 1.227 and a synergy score [2, 8] of 3.13. For the same compound, the synergy score [2, 7] was 0.6972, the synergy score ([3]; in combination with ADAC) was 2.576 and the synergy score ([3]; in combination with HE-NECA) was 0.6406. For the same compound, the synergy score ([4]; in combination with ADAC) was 1.877 and the synergy score ([4]; in combination with HE-NECA) was 0.6736.
With O=c1cc(N2CCOCC2)oc2c(-c3ccccc3)cccc12 [LY 294002] the “synergy score” value [2, 7] was 0.83.
C[C@@H]1C[C@H]2O[C@@H]2/C=C\C=C\C(=O)Cc2c(Cl)c(O)cc(O)c2C(=O)O1 [Monordon] was tested, and the “synergy score” value [2] was 1.7.
In the case of COc1ccc(Cc2nccc3cc(OC)c(OC)cc23)cc1OC [Papaverine, 1-[(3.4-dimethoxyphenyl)-methyl]-6,7-dimethoxyisoquinolone], the “Synergy score … RPMI-8226” value [1, 9] is reported as 3.49, the “Synergy score with dexamethasone, MM.1S” value ([3]; 72 h) is reported as 2.99 and the “Synergy score with dexamethasone, H929” value [4] is reported as 3.05.
For O=C1C=C2C(=CCOC2O)O1 (centres unmarked) [Patulin], the “synergy score” value [2, 7] was 1.73.
In the case of COc1ccc(C2CNC(=O)C2)cc1OC1CCCC1 (centres unmarked) [Rolipram, 4-(3-cyclopentyloxy-4-methoxyphenyl)-2-pyrrolidone], the “Synergy score … RPMI-8226” value [1, 9] is reported as 1.43, the “Synergy score with dexamethasone, MM.1S” value ([3]; 72 h) is reported as 0.203 and the “Synergy score with dexamethasone, H929” value [4] is reported as 0.0927.
In the case of Nc1nc2c(cnn2CCc2ccccc2)c2nc(-c3ccco3)nn12 [SCH 58261], the “blocking of chloro-IB-MECA antiproliferative activity” value ([6]; SCH 58261 78 nM, 72 hours, 2-fold dilutions of chloro-IB-MECA) is reported as greater than 50% and the “blocking of chloro-IB-MECA antiproliferative activity” value ([6]; antagonist concentration increased 2-fold) is reported as greater than 70%.
Work on CC(=O)S[C@@H]1CC2=CC(=O)CC[C@]2(C)[C@H]2CC[C@@]3(C)[C@@H](CC[C@@]34CCC(=O)O4)[C@H]12 [Spironolactone] yielded a synergy score ([1]; in combination with ADAC) of 0.8213, a synergy score ([1]; in combination with HE-NECA) of 0.6876 and a synergy score [2, 8] of 2.029. For the same compound, the synergy score [2, 7] was 1.151, the synergy score ([3]; in combination with ADAC) was 1.444 and the synergy score ([3]; in combination with HE-NECA) was 1.835. The synergy score ([4]; in combination with ADAC) was 0.6779 and the synergy score ([4]; in combination with HE-NECA) was 1.831.
For O=c1[nH]c(=O)n([C@H]2C[C@H](O)[C@@H](CO)O2)cc1C(F)(F)F [Trifluridine], the “synergy score” value [2, 7] was 1.94.
With CC(C)[C@]12O[C@H]1[C@@H]1O[C@]13[C@]1(O[C@H]1C[C@H]1C4=C(CC[C@@]13C)C(=O)OC4)[C@@H]2O [Triptolide] the “synergy score” value [2, 7] was 2.12.
